Results published in patent US11958860B2, “Crystal form of compound, and preparation method therefor and use thereof” (JIANGSU KANION PHARMACEUTICAL CO., LTD., priority 2021, dated 2024).

Legend:
Assay type in all cases: physicochemical
[1] = Percentage of solvent or water in crystal form
Description: Thermo gravimetric analysis (TGA for short) is an analysis technique to determine the change of mass of substances with temperature under conditions of programmed temperature control. […] Thus, such thermo gravimetric analysis is suitable for detecting the loss of crystallization solvents or crystallization water molecules in crystalline substances or the process and magnitude of sublimation and decomposition of the sample, and can also effectively distinguish whether the substances contain the crystallization solvents or the crystallization water molecules.
In the present invention, test parameters of the TGA are as follows: device model: Netzsch TG 209F3; temperature range: 30-400° C.; scanning rate: 10 k/min; purge gas: 25 ml/min; and protective gas: 15 mL/min.

[2] = Transformation experiment between crystal forms (heating); details: heating temperature 120 °C, heating time 40 min
Description: Four crystal forms, such as Form A, Form B, Form C, and Form D, are experienced for mutual transformation experiment. Experimental conditions and results are as follows: […]

[3] = Dynamic vapor sorption (DVS) hygroscopicity test; details: for water absorption percentage / water loss percentage: 25 °C
Description: Dynamic vapor sorption (DVS) test/hygroscopicity test is to quickly determine the increase and loss of sample moisture caused by a flowing carrier gas with a set relative humidity (RH). The sample is placed on a high-sensitivity and high-stability digital micro-balancer in a self-suspension state, and then the sorption/desorption of water vapor is detected by determining the increase/decrease of material mass, so as to determine the hygroscopicity of the sample.
In the present invention, test parameters of the DVS are as follows: device model: SMS DVS Intrinsic; 0-95% RH; temperature: 25° C.
A dynamic vapor sorption (DVS) device is used to investigate the moisture sorption and desorption of samples at a temperature of 25° C. and a relative humidity of 0-95%, so as to determine the hygroscopic sorption properties of different crystal forms.

[4] = Comparison of crystal form stability (equilibrated suspension); details: conclusion from the crystal transformation results (Tables 2 and 3)
Procedure: 5 mg of each sample is taken and mixed with 1 ml of a solvent at 25° C. Experimental conditions and results are as follows: […]

| Percentage of solvent or water [1] | Crystal form of product [2] | water absorption percentage ([3]; RH 65%) | water absorption percentage ([3]; RH 80%) | water loss percentage ([3]; RH 65%) | water loss percentage ([3]; RH 80%) | relative stability of crystal forms [4] | change in hygroscopicity and weight (DVS) ([3]; relative humidity of 0-95%, FIG. 5) | SMILES |
| --- | --- | --- | --- | --- | --- | --- | --- | --- |
| 4.4% | Form A | percentage (0.5%) | percentage (1.2%) | – | – | – | – | COc1cc2c(cc1OC)CN1CCc3cc4c(cc3C1C2)OCO4 (single isomer, unassigned) [Form C, S-(−)-2,3-methylenedioxy-5,8,13,13a-tetrahydro-10,11-dimethoxy-6H-dibenzo[a, g]quinolizine] |
| 0.0% | Form A | percentage (0.2%) | percentage (0.3%) | – | – | – | – | COc1cc2c(cc1OC)CN1CCc3cc4c(cc3C1C2)OCO4 (single isomer, unassigned) [Form D, S-(−)-2,3-methylenedioxy-5,8,13,13a-tetrahydro-10,11-dimethoxy-6H-dibenzo[a, g]quinolizine] |
| 10.8% | Form A | – | – | percentage (0.2%) | percentage (0.3%) | – | – | COc1cc2c(cc1OC)CN1CCc3cc4c(cc3C1C2)OCO4 (single isomer, unassigned) [Form B, S-(−)-2,3-methylenedioxy-5,8,13,13a-tetrahydro-10,11-dimethoxy-6H-dibenzo[a, g]quinolizine] |
| 0.0% | Form A | percentage (0.1%) | percentage (0.2%) | – | – | most stable crystal form | approximately 0.6% | COc1cc2c(cc1OC)CN1CCc3cc4c(cc3[C@@H]1C2)OCO4 [Form A, S-(−)-2,3-methylenedioxy-5,8,13,13a-tetrahydro-10,11-dimethoxy-6H-dibenzo[a, g]quinolizine] |
